Experimental data from ChEMBL document CHEMBL1240412, “Synthesis and structure activity relationship studies of novel Staphylococcus aureus Sortase A inhibitors” (Eur J Med Chem, 2010).

Assay: Inhibition of Staphylococcus aureus Sortase Adelta59 by FRET assay

| Structure (SMILES) | IC50 [µM] |
| --- | --- |
| COC(=O)c1cc(N(C)C(=O)/C=C/c2ccco2)ccc1N1CCOCC1 | 514 |
| COC(=O)c1cc(NC(=O)/C=C\c2cccs2)ccc1N1CCOCC1 | 61 |
| COC(=O)c1cc(NC(=O)CCc2ccco2)ccc1N1CCOCC1 | > 600 |
| O=C(C#Cc1cccs1)Nc1ccc(N2CCOCC2)c(C(=O)O)c1 | 183 |
| COC(=O)c1cc(NC(=O)/C=C/c2cccs2)ccc1N1CCCCC1 | 92 |
| COC(=O)c1cc(NC/C=C/c2cccs2)ccc1N1CCOCC1 | 249 |
| COC(=O)c1cc(N(C)C(=O)/C=C/c2cccs2)ccc1N1CCOCC1 | 571 |
| O=Cc1cc(NC(=O)/C=C/c2cccs2)ccc1N1CCOCC1 | 77 |
| COC(=O)c1cc(NC(=O)C#Cc2cccs2)ccc1N1CCOCC1 | 165 |
| COC(=O)c1cc(NC(=O)/C=C/c2ccco2)ccc1N1CCOCC1 | 58 |
| O=Cc1cc(NC(=O)/C=C/c2ccco2)ccc1N1CCOCC1 | 107 |
| O=C(/C=C/c1ccco1)Nc1ccc(N2CCOCC2)c(C(=O)O)c1 | 181 |
| O=C(O)c1cc(NC/C=C/c2cccs2)ccc1N1CCOCC1 | > 600 |
| COC(=O)c1cc(NC(=O)/C=C/c2ccco2)ccc1N1CCCCC1 | 131 |
| O=C(CCc1ccco1)Nc1ccc(N2CCOCC2)c(C(=O)O)c1 | > 600 |
| O=C(/C=C\c1cccs1)Nc1ccc(N2CCOCC2)c(C(=O)O)c1 | 154 |
| COC(=O)c1cc(NC(=O)/C=C/c2cccs2)ccc1N1CCOCC1 | 71 |
| O=C(/C=C/c1cccs1)Nc1ccc(N2CCCCC2)c(C(=O)O)c1 | 181 |
| O=C(/C=C/c1ccco1)Nc1ccc(N2CCCCC2)c(C(=O)O)c1 | 463 |
| O=C(/C=C/c1cccs1)Nc1ccc(N2CCOCC2)c(C(=O)O)c1 | 75 |
| O=C(CCc1cccs1)Nc1ccc(N2CCOCC2)c(C(=O)O)c1 | > 600 |
| O=C(/C=C/c1ccco1)Nc1ccc(N2CCOCC2)c(CO)c1 | 111 |
| COC(=O)c1cc(NC(=O)CCc2cccs2)ccc1N1CCOCC1 | > 600 |
| CN(C(=O)/C=C/c1cccs1)c1ccc(N2CCOCC2)c(C(=O)O)c1 | > 600 |
| CN(C(=O)/C=C/c1ccco1)c1ccc(N2CCOCC2)c(C(=O)O)c1 | > 600 |
| NC(=O)c1cc(NC(=O)/C=C/c2cccs2)ccc1N1CCOCC1 | 105 |
| O=C(/C=C/c1cccs1)Nc1ccc(N2CCOCC2)c(CO)c1 | 73 |
